Patent publication US6352988B2, “Indane or dihydroindole derivatives” (H. Lundbeck A/S, priority 1996, dated 2002)

Tests used:
[1] = target: T1, dopamine D4 receptors in cloned human dopamine receptor subtype 4.2 membranes (Homo sapiens, UniProt P21917, DEL271-302); experiment: 3H-YM-09151-2 binding (affinity for dopamine D4 receptors); settings: 3H-YM-09151-2, cloned human D4.2 membranes; * means that the test result is preliminary; read-out: D4-bind. IC50
T1 sequence (P21917 with tags, fused parts or gaps DEL271-302): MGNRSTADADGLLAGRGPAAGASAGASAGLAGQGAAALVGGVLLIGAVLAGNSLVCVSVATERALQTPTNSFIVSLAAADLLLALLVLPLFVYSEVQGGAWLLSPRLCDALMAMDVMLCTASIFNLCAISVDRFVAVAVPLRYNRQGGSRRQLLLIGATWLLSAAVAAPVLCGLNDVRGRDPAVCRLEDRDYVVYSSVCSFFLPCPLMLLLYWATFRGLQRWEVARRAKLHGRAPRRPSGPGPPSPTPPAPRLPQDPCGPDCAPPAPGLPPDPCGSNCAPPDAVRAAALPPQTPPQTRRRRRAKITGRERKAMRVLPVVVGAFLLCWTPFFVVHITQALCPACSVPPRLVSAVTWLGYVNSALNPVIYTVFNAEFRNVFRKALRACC
Method: By this method the inhibition by drugs of the binding of the dopamine D4 antagonist ^3H-YM-09151-2 to dopamine D4 receptors in cloned human dopamine receptor subtype 4.2 membranes is determined in vitro. Accordingly, this is a test for affinity for dopamine D4 receptors. The test is performed using a preparation of cloned dopamine D4 cell membranes CRM-016®, Dupharma A/S, Denmark, in accordance with the product specifications.

SMILES	IC50 [1]	melting point
Clc1ccc2c(C3CCN(CCCCC4Cc5ccccc5C4)CC3)c[nH]c2c1 [Compound 21h, 6-Chloro-3-[1-[4-(indan-2-yl)butan-1-yl]piperidin-4-yl]-1H-indole]	14 nM	139 to 140 °C
C1=C(c2cc3ccccc3[nH]2)CCN(CCC2Cc3ccccc3C2)C1 [Compound 28c, 2-[1-[2-(Indan-2-yl)ethyl]-1,2,3,6-tetrahydropyridin-4-yl]-1H-indole]	13 nM	175 to 176 °C
CC(=O)N1CC(CCN2CC=C(c3c[nH]c4cc(Cl)ccc34)CC2)c2ccccc21 (single isomer, unassigned; (-)) [Compound 34b]	24 nM	168 to 169 °C
